Reference: patent publication US12565510B2, “Phospholipid” (NIPPON FINE CHEMICAL CO., LTD., priority 2021, dated 2026)

Assays:
[1] = Measurement of particle size and polydispersity index of lipid particles (Zetasizer Nano ZS); format: physicochemical; details: siRNA-containing lipid particles made with the named phospholipid A, phospholipid B and cholesterol; for PDI / Particle size (nm): diluted 50-fold with RNase-free water
Procedure: (§1) siRNA was added to 1 mM citrate buffer (pH 4.0), thereby preparing an acidic aqueous solution of siRNA (25° C., siRNA concentration: 301.2 nM). Separately, lipids were added to ethanol, thereby preparing a phospholipid alcohol solution (25° C., lipid concentration: 2.5 mM). The molar ratios of lipids were (1) DHSM-DEDA:DHSM:cholesterol (Chol)=45:10:45, (2) DHSM-PPZ:DOPC:cholesterol (Chol)=45:10:60, and (3) DOP-DEDA:DPPC:cholesterol (Chol)=45:10:45. A 4.15-fold volume of the acidic aqueous solution of siRNA was added to the phospholipid alcohol solution (siRNA/lipid molar ratio=1/7000), and a microchannel (KeyChem-Basic, YMC Co., Ltd.) was used to obtain lipid particles. Finally, ethanol was removed by dialysis.
The lipid particles were diluted 50-fold with RNase-free water, and then the particle size and polydispersity index (PDI) were measured with a Zetasizer Nano ZS (Malvern). The lipid particles were also diluted 50-fold with a buffer (pH=4.0, 5.0, 6.0, or 7.0), and the ζ-potential was then measured.

[2] = siRNA encapsulation efficiency of lipid particles (RiboGreen reagent); format: physicochemical; details: siRNA-containing lipid particles made with the named phospholipid A; siRNA/lipid molar ratio 1/7000; with or without 2% Triton-X 100
Procedure: as §1
Further, the encapsulation efficiency of siRNA was measured in the following manner. The measurement was performed using an RNA assay reagent (RiboGreen reagent, Thermo Fisher Scientific), specifically as described below. […] The plate was shaken for 5 minutes, and the fluorescence intensity in each well was measured. The encapsulation efficiency of siRNA in the lipid particles was calculated using the following equation: the encapsulation efficiency (%)=(the fluorescence intensity of total siRNA−the fluorescence intensity of free siRNA)/(the fluorescence intensity of total siRNA), with the measured fluorescence intensity.

| Particle size distribution [1] | PDI [1] | Particle size (nm) [1] [nm] | siRNA encapsulation efficiency (%) [2] [%] | Compound |
| --- | --- | --- | --- | --- |
| Double peak | 0.09 ± 0.03 | 132 ± 37 |  | CCCCCCCCCCCCCCCCCC(=O)N[C@@H](COP(=O)(O)OCCNCCN)[C@H](O)CCCCCCCCCCCCCCC [DHSM-DEDA, (2S,3R)-3-hydroxy-2-stearamidooctadecyl (2-(2′-aminoethylenamine)ethyl) phosphate] |
| Double peak | 0.16 ± 0.01 | 111 ± 4 | 80 ± 7 | (2S,3R)-3-hydroxy-2-stearamidooctadecyl (2-(piperazino)ethyl) phosphate [DHSM-PPZ] |
| Single peak | 0.11 ± 0.06 | 100 ± 3 | 98 ± 7 | Dioleoylphosphate-Diethylenediamine Conjugate [DOP-DEDA, reference compound] |
